Assay [1] concerns the target T1, HSP90a protein (Homo sapiens, UniProt P07900).
T1 construct: purchased BPS Bioscience 50298
Put plainly: HSP90α-binding fluorescent polarization (FP) assay, BODIPY-labeled RNK04010 probe. To be noted: FP competition with RNK04010 (BODIPY-labeled), 5 nM, 300 min at 25° C. The gist of the method:
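Compound dilutions (20 μM to 5.2 nM, 2.5-fold) are combined with 5 nM final labeled probe, and HSP90a N-terminal protein is added last. Plates are shaken briefly and held at 25° C for 120 min (FITC-geldanamycin) or 300 min (BODIPY-RNK04010), then FP is measured.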

Assay [2] relates to MIA PaCa-2 human pancreatic carcinoma. As to the kind of experiment: MIA PaCa-2 CCK-8 proliferation assay. The following applies: Homo sapiens, MIA PaCa-2, 72 h, MIA PaCa-2 cells. Format: cell-based. The procedure, abridged: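 KRAS(G12C) lines were used: MIA PaCa-2 with 2 copies, and NCI-H358 and NCI-H23 with 1 copy each. Cells were treated with 3-fold compound dilutions from 20 μM to 1.02 nM, and proliferation was read by CCK-8 absorbance. % inhibition was calculated against DMSO-treated cells after subtracting the cell-free medium blank.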
(In general: Formazan colour is commonly taken as a measure of viable cells.)

The target of assay [3] is KRAS(G12C) (Homo sapiens, UniProt P01116, G12C). As to the kind of experiment: KRAS(G12C)/SOS1 homogeneous time-resolved fluorescence (HTRF) assay. More on the design: purchased Cisbio 63ADK000CB16PEG. The following applies: absence of GTP, 4° C. for 3 hr, read-out: KRAS (G12C) binding. The gist of the method: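 Three-hour incubation at 4 °C of 3-fold compound dilutions (lowest 1.02 nM) with KRAS(G12C), SOS1 and detection reagents, GTP absent. Disruption of the KRAS(G12C)/SOS1 complex detected by time-resolved fluorescence.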
Background: In TR-FRET formats the signal depends on donor and acceptor labels being close together.

KRAS(G12C), sequence (P01116 1-188 isoform P01116-2 G12C): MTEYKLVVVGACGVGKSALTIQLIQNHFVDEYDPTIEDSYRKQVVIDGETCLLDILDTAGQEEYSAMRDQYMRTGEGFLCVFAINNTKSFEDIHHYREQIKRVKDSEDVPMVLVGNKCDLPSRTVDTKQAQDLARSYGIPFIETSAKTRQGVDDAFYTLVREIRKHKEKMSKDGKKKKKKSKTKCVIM

For the molecule `C=CC(=O)N1CCN(c2nc(OC[C@@H]3C[C@H](NC(=O)C4CCN(C(=O)C5CCN(Cc6ccc(-n7c(C(=O)NCC(F)(F)F)nnc7-c7cc(C(C)C)c(O)cc7O)cc6)CC5)CC4)CN3C)nc3c2CCN(c2cccc4cccc(Cl)c24)C3)C[C@@H]1CC#N` [Compound 307, N-[(3S,5S)-5-({[7-(8-chloronaphthalen-1-yl)-4-[(3S)-3-(cyanomethyl)-4-(prop-2-enoyl)piperazin-1-yl]-5H,6H,8H-pyrido[3,4-d]pyrimidin-2-yl]oxy}methyl)-1-methylpyrrolidin-3-yl]-1-[1-({4-[3-(2,4-dihydroxy-5-isopropylphenyl)-5-[(2,2,2-tri-fluoroethyl)carbamoyl]-1,2,4-triazol-4-yl]phenyl}methyl)piperidine-4-carbonyl]piperidine-4-carboxamide], the IC50 in assay [1] and in assay [3] was below 100 nM each time. This molecule yielded an EC50 in assay [2] below 100 nM.
`C=CC(=O)N1CCN(c2nc(OC[C@@H]3C[C@H](NC(=O)C4CCN(C(=O)C5CCN(Cc6ccc(-n7c(C(=O)NCC(F)(F)C(F)(F)F)nnc7-c7cc(C(C)C)c(O)cc7O)cc6)CC5)CC4)CN3C)nc3c2CCN(c2cccc4cccc(Cl)c24)C3)C[C@@H]1CC#N` [Compound 308, N-[(3S,5S)-5-({[7-(8-chloronaphthalen-1-yl)-4-[(3S)-3-(cyanomethyl)-4-(prop-2-enoyl)piperazin-1-yl]-5H,6H,8H-pyrido[3,4-d]pyrimidin-2-yl]oxy}methyl)-1-methylpyrrolidin-3-yl]-1-[1-({4-[3-(2,4-dihydroxy-5-isopropylphenyl)-5-[(2,2,3,3,3-pentafluoropropyl)carbamoyl]-1,2,4-triazol-4-yl]phenyl}methyl)piperidine-4-carbonyl]piperidine-4-carboxamide]: the IC50 in assay [1] and in assay [3] was below 100 nM in each case. Also, the EC50 in assay [2] was below 100 nM.
`C=CC(=O)N1CCN(c2nc(OC[C@@H]3C[C@H](NC(=O)C4CCN(C(=O)C5CCN(Cc6ccc(-n7c(O)nnc7-c7cc(C(C)C)c(O)cc7O)cc6)CC5)CC4)CN3C)nc3c2CCN(c2cccc4cccc(Cl)c24)C3)C[C@@H]1CC#N` [Compound 309, N-[(3S,5S)-5-({[7-(8-chloronaphthalen-1-yl)-4-[(3S)-3-(cyanomethyl)-4-(prop-2-enoyl)piperazin-1-yl]-5H,6H,8H-pyrido[3,4-d]pyrimidin-2-yl]oxy}methyl)-1-methylpyrrolidin-3-yl]-1-[1-({4-[3-(2,4-dihydroxy-5-isopropylphenyl)-5-hydroxy-1,2,4-triazol-4-yl]phenyl}methyl)piperidine-4-carbonyl]piperidine-4-carboxamide]: the IC50 in assay [1] and in assay [3] was below 100 nM each time. The same molecule came in with an EC50 in assay [2] of 100 to 1000 nM.
`C=CC(=O)N1CCN(c2nc(OC[C@@H]3CC[C@H](CN4CCN(C(=O)C5CCN(Cc6ccc(-n7c(C(=O)NCC(F)(F)F)nnc7-c7cc(C(C)C)c(O)cc7O)cc6)CC5)CC4)N3C)nc3c2CCN(c2cccc4cccc(Cl)c24)C3)C[C@@H]1CC#N` [Compound 310, 4-(4-{[4-(4-{[(2R,5S)-5-({[7-(8-chloronaphthalen-1-yl)-4-[(3S)-3-(cyanomethyl)-4-(prop-2-enoyl)piperazin-1-yl]-5H,6H,8H-pyrido[3,4-d]pyrimidin-2-yl]oxy}methyl)-1-methylpyrrolidin-2-yl]methyl}piperazine-1-carbonyl)piperidin-1-yl]methyl}phenyl)-5-(2,4-dihydroxy-5-isopropylphenyl)-N-(2,2,2-trifluoroethyl)-1,2,4-triazole-3-carboxamide]: the IC50 in assay [1] and in assay [3] was below 100 nM each time. The EC50 in assay [2] was below 100 nM.
Consider `C=CC(=O)N1CCN(c2nc(OC[C@@H]3C[C@H](N4CCC5(CCN(C(=O)C6CCN(Cc7ccc(-n8c(C(=O)NCC(F)(F)F)nnc8-c8cc(C(C)C)c(O)cc8O)cc7)CC6)CC5)CC4)CN3C)nc3c2CCN(c2cccc4cccc(Cl)c24)C3)C[C@@H]1CC#N` [Compound 311, 4-{4-[(4-{9-[(3S,5S)-5-({[7-(8-chloronaphthalen-1-yl)-4-[(3S)-3-(cyanomethyl)-4-(prop-2-enoyl)piperazin-1-yl]-5H,6H,8H-pyrido[3,4-d]pyrimidin-2-yl]oxy}methyl)-1-methylpyrrolidin-3-yl]-3,9-diazaspiro[5.5]undecane-3-carbonyl}piperidin-1-yl)methyl]phenyl}-5-(2,4-dihydroxy-5-isopropylphenyl)-N-(2,2,2-trifluoroethyl)-1,2,4-triazole-3-carboxamide], for which the IC50 in assay [1] and in assay [3] was below 100 nM in each case. In assay [2], the EC50 was below 100 nM.
As to `C=CC(=O)N1CCN(c2nc(OC[C@@H]3C[C@H](NC(=O)C4CCN(C(=O)C5CCN(Cc6ccc(-n7c(O)nnc7-c7cc(C)c(O)cc7O)cc6)CC5)CC4)CN3C)nc3c2CCN(c2cccc4cccc(Cl)c24)C3)C[C@@H]1CC#N` [Compound 312, N-[(3S,5S)-5-({[7-(8-chloronaphthalen-1-yl)-4-[(3S)-3-(cyanomethyl)-4-(prop-2-e-noyl)piperazin-1-yl]-5H,6H,8H-pyrido[3,4-d]pyrimidin-2-yl]oxy}methyl)-1-meth-ylpyrrolidin-3-yl]-1-[1-({4-[3-(2,4-dihydroxy-5-methylphenyl)-5-hydroxy-1,2,4-triazol-4-yl]phenyl}methyl)piperidine-4-carbonyl]piperidine-4-carboxamide], the IC50 in assay [1] and in assay [3] was below 100 nM throughout. The same molecule showed a 50% effective concentration (EC50) in assay [2] above 1000 nM.
As to `C=CC(=O)N1CCN(c2nc(OC[C@@H]3CC[C@H](CN4CCN(C(=O)C5CCN(Cc6ccc(-n7c(O)nnc7-c7cc(C(C)C)c(O)cc7O)cc6)CC5)CC4)N3C)nc3c2CCN(c2cccc4cccc(Cl)c24)C3)C[C@@H]1CC#N` [Compound 313, 2-[(2S)-4-[7-(8-chloronaphthalen-1-yl)-2-{[(2S,5R)-5-({4-[1-({4-[3-(2,4-dihydroxy-5-isopropylphenyl)-5-hydroxy-1,2,4-triazol-4-yl]phenyl}methyl)piperidine-4-carbonyl]piperazin-1-yl}methyl)-1-methylpyrrolidin-2-yl]methoxy}-5H,6H,8H-pyrido [3,4-d]pyrimidin-4-yl]-1-(prop-2-enoyl)piperazin-2-yl]acetonitrile], the IC50 in assay [1] and in assay [3] was below 100 nM each time. The molecule also returned an EC50 in assay [2] below 100 nM.
As to `C=CC(=O)N1CCN(c2nc(OC[C@@H]3C[C@H](N4CCC(C(=O)N5CCN(Cc6ccc(-n7c(C(=O)NCC(F)(F)F)nnc7-c7cc(C(C)C)c(O)cc7O)cc6)CC5)CC4)CN3C)nc3c2CCN(c2cccc4cccc(Cl)c24)C3)C[C@@H]1CC#N` [Compound 314, 4-{4-[(4-{1-[(3S,5S)-5-({[7-(8-chloronaphthalen-1-yl)-4-[(3S)-3-(cyanomethyl)-4-(prop-2-enoyl)piperazin-1-yl]-5H,6H,8H-pyrido[3,4-d]pyrimidin-2-yl]oxy}methyl)-1-methylpyrrolidin-3-yl]piperidine-4-carbonyl}piperazin-1-yl)methyl]phenyl}-5-(2,4-dihydroxy-5-isopropylphenyl)-N-(2,2,2-trifluoroethyl)-1,2,4-triazole-3-carboxamide], the IC50 in assay [1] and in assay [3] was below 100 nM each time. For the same molecule, the EC50 in assay [2] is below 100 nM.
Turning to `C=CC(=O)N1CCN(c2nc(OC[C@@H]3C[C@H](NC(=O)C4CCN(C(=O)c5ccc(-n6c(O)nnc6-c6cc(C(C)C)c(O)cc6O)cc5)CC4)CN3C)nc3c2CCN(c2cccc4cccc(Cl)c24)C3)C[C@@H]1CC#N` [Compound 315, N-[(3S,5S)-5-({[7-(8-chloronaphthalen-1-yl)-4-[(3S)-3-(cyanomethyl)-4-(prop-2-enoyl)piperazin-1-yl]-5H,6H,8H-pyrido[3,4-d]pyrimidin-2-yl]oxy}methyl)-1-methylpyrrolidin-3-yl]-1-{4-[3-(2,4-dihydroxy-5-isopropylphenyl)-5-hydroxy-1,2,4-triazol-4-yl]benzoyl}piperidine-4-carboxamide], the IC50 in assay [1] and in assay [3] was below 100 nM in each case. In addition, the EC50 in assay [2] was above 1000 nM.
For `C=CC(=O)N1CCN(c2nc(OC[C@@H]3C[C@H](N4CCC(C(=O)N5CCN(Cc6ccc(-n7c(O)nnc7-c7cc(C(C)C)c(O)cc7O)cc6)CC5)CC4)CN3C)nc3c2CCN(c2cccc4cccc(Cl)c24)C3)C[C@@H]1CC#N` [Compound 317, 2-[(2S)-4-[7-(8-chloronaphthalen-1-yl)-2-{[(2S,4S)-4-{4-[4-({4-[3-(2,4-dihydroxy-5-isopropylphenyl)-5-hydroxy-1,2,4-triazol-4-yl]phenyl}methyl)piperazine-1-carbonyl]piperidin-1-yl}-1-methylpyrrolidin-2yl]methoxy}-5H,6H,8H-pyrido[3,4-d]pyrimidin-4-yl]-1-(prop-2-enoyl)piperazin-2-yl]acetonitrile], the IC50 in assay [1] and in assay [3] was below 100 nM each time. In assay [2], this molecule came in with an EC50 of 100 to 1000 nM.

The EC50 is the concentration giving half of the maximal effect. A high value points to weaker potency.

The values above are taken from patent US20230391772A1, “METHODS AND COMPOSITIONS FOR TARGETED PROTEIN DEGRADATION” (Ranok Therapeutics (Hangzhou) Co. Ltd., priority 2020, published 2023).
